#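 Interpolation was linear, between the two tested concentrations surrounding the appropriate level; five concentrations were tested over 48 hours in 96-well plates. Abbreviation: GI50, concentration required for 50% inhibition of growth.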 Active and inactive are the calls of the source. Rule as the data show it: active = GI50 up to about 1.1 µM and inactive = higher.
# Columns and labels:
# Assay in all cases: NCI-60 cell line screen, 48 h
# [1] = system: SK-OV-3
# [2] = system: HCT-15
# [3] = system: SW-620
# [4] = system: RXF 393
# [5] = system: OVCAR-4
# [6] = system: CCRF-CEM
# [7] = system: HOP-92
# [8] = system: NCI-H23
# [9] = system: KM12
# [10] = system: BT-549
# [11] = system: U-251
# [12] = system: SK-MEL-28
# [13] = system: RPMI-8226
# [14] = system: DU-145
# [15] = system: K562
# [16] = system: HCT-116
# [17] = system: SK-MEL-5
# [18] = system: HT-29
# [19] = system: T47D
# [20] = system: COLO 205
# [21] = system: M14
# [22] = system: NCI/ADR-RES
# [23] = system: NCI-H226
# [24] = system: SF-539
# [25] = system: HCC 2998
# [26] = system: SF-268
# [27] = system: MDA-MB-231
# [28] = system: UACC-257
# [29] = system: EKVX
# [30] = system: UO-31
# [31] = system: LOX IMVI
# [32] = system: HL-60
# [33] = system: OVCAR-8
# [34] = system: NCI-H522
# [35] = system: MOLT-4
# [36] = system: SR
# [37] = system: TK-10
# [38] = system: OVCAR-5
# [39] = system: NCI-H460
# [40] = system: HOP-62
# [41] = system: MDA-MB-435
# [42] = system: OVCAR-3
# [43] = system: SF-295
# [44] = system: A549
# [45] = system: 786-0
# [46] = system: MDA-N
# [47] = system: UACC-62
# [48] = system: IGROV-1
# [49] = system: ACHN
# [50] = system: MCF7
# [51] = system: Hs-578T
# [52] = system: SNB-19
# [53] = system: CAKI-1
# [54] = system: SNB-75
# [55] = system: SK-MEL-2
# [56] = system: SN12C
# [57] = system: PC-3
# [58] = system: Malme-3M
# [59] = system: A498
structure (smiles),measurement,setting,value
Cn1c2ccccc2c(=NNc2ccc(C(=O)O)cc2)c2ccccc21,GI50,[1],17.3 µM (inactive)
same,GI50,[2],18.8 µM
same,GI50,[3],16.1 µM (inactive)
same,GI50,[4],15.4 µM (inactive)
same,GI50,[5],12.9 µM (inactive)
same,GI50,[6],15.2 µM (inactive)
same,GI50,[7],20.5 µM (inactive)
same,GI50,[8],21.1 µM (inactive)
same,GI50,[9],15.7 µM (inactive)
same,GI50,[10],21.6 µM (inactive)
same,GI50,[11],11.1 µM (inactive)
same,GI50,[12],26 µM (inactive)
same,GI50,[13],12.9 µM (inactive)
same,GI50,[14],19.5 µM (inactive)
same,GI50,[15],6.79 µM (inactive)
same,GI50,[16],7.5 µM (inactive)
same,GI50,[17],17.6 µM (inactive)
same,GI50,[18],13.1 µM (inactive)
same,GI50,[19],13.4 µM (inactive)
same,GI50,[20],15.3 µM (inactive)
same,GI50,[21],16.9 µM (inactive)
same,GI50,[22],23.9 µM (inactive)
same,GI50,[23],17.7 µM (inactive)
same,GI50,[24],19.2 µM (inactive)
same,GI50,[25],8.38 µM (inactive)
same,GI50,[26],15.8 µM (inactive)
same,GI50,[27],19.8 µM (inactive)
same,GI50,[28],30.1 µM (inactive)
same,GI50,[29],9.25 µM (inactive)
same,GI50,[30],15.1 µM (inactive)
same,GI50,[31],10.6 µM (inactive)
same,GI50,[32],14.6 µM (inactive)
same,GI50,[33],14.8 µM (inactive)
same,GI50,[34],10.7 µM (inactive)
same,GI50,[35],11.3 µM (inactive)
same,GI50,[36],13.8 µM (inactive)
same,GI50,[37],21.3 µM (inactive)
same,GI50,[38],17.8 µM (inactive)
same,GI50,[39],16.1 µM (inactive)
same,GI50,[40],18.8 µM (inactive)
same,GI50,[41],19 µM (inactive)
same,GI50,[42],16.5 µM (inactive)
same,GI50,[43],20.8 µM (inactive)
same,GI50,[44],14.4 µM (inactive)
same,GI50,[45],19.8 µM (inactive)
same,GI50,[46],17.7 µM (inactive)
same,GI50,[47],18.5 µM (inactive)
same,GI50,[48],20.1 µM (inactive)
same,GI50,[49],15.3 µM (inactive)
same,GI50,[50],10.4 µM (inactive)
same,GI50,[51],18.7 µM (inactive)
same,GI50,[52],21.8 µM (inactive)
same,GI50,[53],21.6 µM (inactive)
same,GI50,[54],19.8 µM (inactive)
same,GI50,[55],19.6 µM (inactive)
same,GI50,[56],18.1 µM (inactive)
same,GI50,[57],14.1 µM (inactive)
same,GI50,[58],21.1 µM (inactive)
COc1ccc2[nH]cc(CN3CCC(CO)(c4ccccc4)CC3)c2c1,GI50,[1],0.53 µM (active)
same,GI50,[2],35.1 µM
same,GI50,[3],21.2 µM (inactive)
same,GI50,[4],71.4 µM (inactive)
same,GI50,[5],42.2 µM (inactive)
same,GI50,[6],21.6 µM (inactive)
same,GI50,[8],91.6 µM (inactive)
same,GI50,[9],17.9 µM (inactive)
same,GI50,[10],78.9 µM (inactive)
same,GI50,[11],30.3 µM (inactive)
same,GI50,[12],17.9 µM (inactive)
same,GI50,[13],22.6 µM (inactive)
same,GI50,[14],45.2 µM (inactive)
same,GI50,[15],17.6 µM (inactive)
same,GI50,[16],15 µM (inactive)
same,GI50,[17],14.1 µM (inactive)
same,GI50,[18],23.1 µM (inactive)
same,GI50,[19],20.9 µM (inactive)
same,GI50,[20],18.3 µM (inactive)
same,GI50,[21],17.3 µM (inactive)
same,GI50,[22],> 100 µM (inactive)
same,GI50,[23],43.5 µM (inactive)
same,GI50,[25],21 µM (inactive)
same,GI50,[26],11.9 µM (inactive)
same,GI50,[59],45.8 µM (inactive)
same,GI50,[27],26.7 µM (inactive)
same,GI50,[28],17.5 µM (inactive)
same,GI50,[29],8.28 µM (inactive)
same,GI50,[30],22.4 µM (inactive)
same,GI50,[31],16.8 µM (inactive)
same,GI50,[32],18.7 µM (inactive)
same,GI50,[33],52.7 µM (inactive)
same,GI50,[34],18.9 µM (inactive)
same,GI50,[35],21 µM (inactive)
same,GI50,[36],22.1 µM (inactive)
same,GI50,[37],95.9 µM (inactive)
same,GI50,[38],68.5 µM (inactive)
same,GI50,[39],30 µM (inactive)
same,GI50,[40],19.7 µM (inactive)
same,GI50,[41],20.6 µM (inactive)
same,GI50,[42],48.2 µM (inactive)
same,GI50,[43],16.1 µM (inactive)
same,GI50,[44],22.5 µM (inactive)
same,GI50,[45],15.3 µM (inactive)
same,GI50,[46],18.7 µM (inactive)
same,GI50,[47],25.9 µM (inactive)
same,GI50,[48],38.5 µM (inactive)
same,GI50,[49],20.2 µM (inactive)
same,GI50,[50],20.8 µM (inactive)
same,GI50,[51],25.7 µM (inactive)
same,GI50,[52],> 100 µM (inactive)
same,GI50,[54],27 µM (inactive)
same,GI50,[55],23.2 µM (inactive)
same,GI50,[56],72.8 µM (inactive)
same,GI50,[57],31.1 µM (inactive)
same,GI50,[58],25.8 µM (inactive)
C=CCN1C(=O)CS/C1=N\NC(=O)CSc1nc2ccccc2c(=O)n1CC,GI50,[1],> 100 µM (inactive)
same,GI50,[2],> 100 µM
same,GI50,[3],> 100 µM (inactive)
same,GI50,[4],> 100 µM (inactive)
same,GI50,[5],> 100 µM (inactive)
same,GI50,[6],> 100 µM (inactive)
same,GI50,[8],> 100 µM (inactive)
same,GI50,[9],> 100 µM (inactive)
same,GI50,[10],> 100 µM (inactive)
same,GI50,[11],> 100 µM (inactive)
same,GI50,[12],> 100 µM (inactive)
same,GI50,[13],> 100 µM (inactive)
same,GI50,[14],> 100 µM (inactive)
same,GI50,[15],> 100 µM (inactive)
same,GI50,[16],> 100 µM (inactive)
same,GI50,[17],> 100 µM (inactive)
same,GI50,[18],> 100 µM (inactive)
same,GI50,[19],> 100 µM (inactive)
same,GI50,[20],> 100 µM (inactive)
same,GI50,[21],> 100 µM (inactive)
same,GI50,[22],> 100 µM (inactive)
same,GI50,[23],> 100 µM (inactive)
same,GI50,[24],> 100 µM (inactive)
same,GI50,[25],> 100 µM (inactive)
same,GI50,[26],> 100 µM (inactive)
same,GI50,[59],35 µM (inactive)
same,GI50,[27],> 100 µM (inactive)
same,GI50,[28],> 100 µM (inactive)
same,GI50,[29],> 100 µM (inactive)
same,GI50,[30],41.9 µM (inactive)
same,GI50,[31],> 100 µM (inactive)
same,GI50,[32],> 100 µM (inactive)
same,GI50,[33],> 100 µM (inactive)
same,GI50,[34],> 100 µM (inactive)
same,GI50,[35],> 100 µM (inactive)
same,GI50,[36],> 100 µM (inactive)
same,GI50,[37],> 100 µM (inactive)
same,GI50,[38],84.1 µM (inactive)
same,GI50,[39],5.37 µM (inactive)
same,GI50,[40],84.1 µM (inactive)
same,GI50,[41],> 100 µM (inactive)
same,GI50,[42],> 100 µM (inactive)
same,GI50,[43],> 100 µM (inactive)
same,GI50,[44],> 100 µM (inactive)
same,GI50,[45],> 100 µM (inactive)
same,GI50,[46],> 100 µM (inactive)
same,GI50,[47],92 µM (inactive)
same,GI50,[48],> 100 µM (inactive)
same,GI50,[49],> 100 µM (inactive)
same,GI50,[50],> 100 µM (inactive)
same,GI50,[51],> 100 µM (inactive)
same,GI50,[52],> 100 µM (inactive)
same,GI50,[53],75.2 µM (inactive)
same,GI50,[54],> 100 µM (inactive)
same,GI50,[55],> 100 µM (inactive)
same,GI50,[56],> 100 µM (inactive)
same,GI50,[57],> 100 µM (inactive)
same,GI50,[58],> 100 µM (inactive)
